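Growth conditions: 96-well plates. Treatment: test compound, 48 hours, 5 concentrations. Analysis: linear interpolation between bracketing concentrations; unreached endpoints set to highest concentration. GI50 is the concentration that inhibits growth by half. Definition used: TGI = concentration required for complete inhibition of growth.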
Experiments:
Assay in all cases: DTP human tumour cell line panel, 48 h
UACC-257 melanoma = system: UACC-257 melanoma
PC-3 prostate = system: PC-3 prostate
NCI/ADR-RES ovarian = system: NCI/ADR-RES ovarian
SF-295 CNS = system: SF-295 CNS
OVCAR-8 ovarian = system: OVCAR-8 ovarian
CAKI-1 renal = system: CAKI-1 renal
MCF7 breast = system: MCF7 breast
TK-10 renal = system: TK-10 renal
SNB-75 CNS = system: SNB-75 CNS
NCI-H522 lung = system: NCI-H522 lung
SW-620 colon = system: SW-620 colon
NCI-H226 lung = system: NCI-H226 lung
SF-539 CNS = system: SF-539 CNS
SK-MEL-2 melanoma = system: SK-MEL-2 melanoma
RPMI-8226 leukemia = system: RPMI-8226 leukemia
SF-268 CNS = system: SF-268 CNS
T-47D breast = system: T-47D breast
UO-31 renal = system: UO-31 renal
OVCAR-5 ovarian = system: OVCAR-5 ovarian
UACC-62 melanoma = system: UACC-62 melanoma
A498 renal = system: A498 renal
SK-OV-3 ovarian = system: SK-OV-3 ovarian
HT29 colon = system: HT29 colon
BT-549 breast = system: BT-549 breast
RXF 393 renal = system: RXF 393 renal
HS 578T breast = system: HS 578T breast
HL-60(TB) leukemia = system: HL-60(TB) leukemia
IGROV1 ovarian = system: IGROV1 ovarian
LOX IMVI melanoma = system: LOX IMVI melanoma
SR leukemia = system: SR leukemia
SK-MEL-28 melanoma = system: SK-MEL-28 melanoma
HOP-62 NSCLC = system: HOP-62 NSCLC
HOP-92 NSCLC = system: HOP-92 NSCLC
U251 CNS = system: U251 CNS
KM12 colon = system: KM12 colon
HCT-116 colon = system: HCT-116 colon
K-562 leukemia = system: K-562 leukemia
OVCAR-3 ovarian = system: OVCAR-3 ovarian
NCI-H23 lung = system: NCI-H23 lung
ACHN renal = system: ACHN renal
EKVX NSCLC = system: EKVX NSCLC
OVCAR-4 ovarian = system: OVCAR-4 ovarian
SNB-19 CNS = system: SNB-19 CNS
SK-MEL-5 melanoma = system: SK-MEL-5 melanoma
MDA-MB-435 = system: MDA-MB-435
MALME-3M melanoma = system: MALME-3M melanoma
MDA-MB-231 breast = system: MDA-MB-231 breast
HCC-2998 colon = system: HCC-2998 colon
MOLT-4 leukemia = system: MOLT-4 leukemia
DU-145 prostate = system: DU-145 prostate
M14 melanoma = system: M14 melanoma
HCT-15 colon = system: HCT-15 colon
786-0 renal = system: 786-0 renal
A549 NSCLC = system: A549 NSCLC
NCI-H460 lung = system: NCI-H460 lung
COLO 205 colon = system: COLO 205 colon
SN12C renal = system: SN12C renal
CCRF-CEM leukemia = system: CCRF-CEM leukemia

For `CCN(CC)c1ccc(/C=N/NC(=O)c2ccc(NS(C)(=O)=O)cc2)c(O)c1`, the GI50 (UACC-257 melanoma) was 0.568 µM, the TGI (UACC-257 melanoma) was 18.4 µM and the GI50 (PC-3 prostate) was 0.369 µM. For the same molecule, the TGI (PC-3 prostate) was > 54 µM, the GI50 (NCI/ADR-RES ovarian) was 3.18 µM and the TGI (NCI/ADR-RES ovarian) was 98.3 µM. The GI50 (SF-295 CNS) was 0.551 µM, the TGI (SF-295 CNS) was 14.8 µM and the GI50 (OVCAR-8 ovarian) was 0.355 µM. For the same molecule, the TGI (OVCAR-8 ovarian) was > 34 µM, the GI50 (CAKI-1 renal) was 0.434 µM and the TGI (CAKI-1 renal) was 17.7 µM. It also gave a GI50 (MCF7 breast) of 0.409 µM, a TGI (MCF7 breast) of 24.5 µM and a GI50 (TK-10 renal) of 0.833 µM. It also gave a TGI (TK-10 renal) of 39.9 µM, a GI50 (SNB-75 CNS) of 0.309 µM and a TGI (SNB-75 CNS) of 5.65 µM. It also gave a GI50 (NCI-H522 lung) of 0.334 µM, a TGI (NCI-H522 lung) of 10.4 µM and a GI50 (SW-620 colon) of 0.468 µM. For the same molecule, the TGI (SW-620 colon) was > 100 µM, the GI50 (NCI-H226 lung) was 1.01 µM and the TGI (NCI-H226 lung) was 31.8 µM. It also gave a GI50 (SF-539 CNS) of 0.426 µM, a TGI (SF-539 CNS) of 7.07 µM and a GI50 (SK-MEL-2 melanoma) of 2.01 µM. For the same molecule, the TGI (SK-MEL-2 melanoma) was 16.9 µM, the GI50 (RPMI-8226 leukemia) was 2.79 µM and the TGI (RPMI-8226 leukemia) was 16.2 µM. For the same molecule, the GI50 (SF-268 CNS) was 0.243 µM, the TGI (SF-268 CNS) was 17.3 µM and the GI50 (T-47D breast) was 2.05 µM. For the same molecule, the TGI (T-47D breast) was > 55.3 µM, the GI50 (UO-31 renal) was 0.397 µM and the TGI (UO-31 renal) was 20.5 µM. For the same molecule, the GI50 (OVCAR-5 ovarian) was 2.47 µM, the TGI (OVCAR-5 ovarian) was > 100 µM and the GI50 (UACC-62 melanoma) was 0.381 µM. The TGI (UACC-62 melanoma) was 7.1 µM, the GI50 (A498 renal) was 2.95 µM and the TGI (A498 renal) was 25.1 µM. For the same molecule, the GI50 (SK-OV-3 ovarian) was 0.508 µM, the TGI (SK-OV-3 ovarian) was 20.1 µM and the GI50 (HT29 colon) was 0.475 µM. It also gave a TGI (HT29 colon) of 16.7 µM, a GI50 (BT-549 breast) of 0.658 µM and a TGI (BT-549 breast) of 8.61 µM. The GI50 (RXF 393 renal) was 0.788 µM, the TGI (RXF 393 renal) was 3.23 µM and the GI50 (HS 578T breast) was 1.95 µM. It also gave a TGI (HS 578T breast) of 18.3 µM, a GI50 (HL-60(TB) leukemia) of 0.242 µM and a GI50 (IGROV1 ovarian) of 0.54 µM. For the same molecule, the TGI (IGROV1 ovarian) was > 70.3 µM, the GI50 (LOX IMVI melanoma) was 0.219 µM and the TGI (LOX IMVI melanoma) was 5.3 µM. For the same molecule, the GI50 (SR leukemia) was 0.0954 µM, the GI50 (SK-MEL-28 melanoma) was 0.444 µM and the TGI (SK-MEL-28 melanoma) was > 50.9 µM. It also gave a GI50 (HOP-62 NSCLC) of 0.267 µM, a TGI (HOP-62 NSCLC) of 6.94 µM and a GI50 (HOP-92 NSCLC) of 0.386 µM. For the same molecule, the TGI (HOP-92 NSCLC) was 20.5 µM, the GI50 (U251 CNS) was 0.239 µM and the TGI (U251 CNS) was > 37.2 µM. It also gave a GI50 (KM12 colon) of 0.536 µM, a TGI (KM12 colon) of 19.6 µM and a GI50 (HCT-116 colon) of 0.33 µM. For the same molecule, the TGI (HCT-116 colon) was 19.5 µM, the GI50 (K-562 leukemia) was 0.443 µM and the TGI (K-562 leukemia) was > 100 µM. For the same molecule, the GI50 (OVCAR-3 ovarian) was 0.185 µM, the TGI (OVCAR-3 ovarian) was 26.3 µM and the GI50 (NCI-H23 lung) was 1.16 µM. It also gave a TGI (NCI-H23 lung) of 30.6 µM, a GI50 (ACHN renal) of 0.497 µM and a TGI (ACHN renal) of 20.6 µM. For the same molecule, the GI50 (EKVX NSCLC) was 0.574 µM, the TGI (EKVX NSCLC) was > 63.1 µM and the GI50 (OVCAR-4 ovarian) was 0.355 µM. The TGI (OVCAR-4 ovarian) was 42.4 µM, the GI50 (SNB-19 CNS) was 0.83 µM and the TGI (SNB-19 CNS) was 30.7 µM. For the same molecule, the GI50 (SK-MEL-5 melanoma) was 0.853 µM, the TGI (SK-MEL-5 melanoma) was 21.3 µM and the GI50 (MDA-MB-435) was 0.734 µM. It also gave a TGI (MDA-MB-435) of 97.2 µM, a GI50 (MALME-3M melanoma) of 0.788 µM and a TGI (MALME-3M melanoma) of 11.7 µM. The GI50 (MDA-MB-231 breast) was 0.432 µM, the TGI (MDA-MB-231 breast) was 34.9 µM and the GI50 (HCC-2998 colon) was 0.572 µM. It also gave a TGI (HCC-2998 colon) of 19.2 µM, a GI50 (MOLT-4 leukemia) of 0.331 µM and a TGI (MOLT-4 leukemia) of 25.6 µM. The GI50 (DU-145 prostate) was 0.751 µM, the TGI (DU-145 prostate) was 23.3 µM and the GI50 (M14 melanoma) was 0.351 µM. The TGI (M14 melanoma) was 3.63 µM, the GI50 (HCT-15 colon) was 0.386 µM and the TGI (HCT-15 colon) was > 68.8 µM. The GI50 (786-0 renal) was 0.425 µM, the TGI (786-0 renal) was 4.2 µM and the GI50 (A549 NSCLC) was 1.98 µM. The TGI (A549 NSCLC) was > 48.5 µM, the GI50 (NCI-H460 lung) was 0.455 µM and the TGI (NCI-H460 lung) was 10.2 µM. For the same molecule, the GI50 (COLO 205 colon) was 0.356 µM, the TGI (COLO 205 colon) was 13.5 µM and the GI50 (SN12C renal) was 0.768 µM. The TGI (SN12C renal) was 62.6 µM, the GI50 (CCRF-CEM leukemia) was 0.169 µM and the TGI (CCRF-CEM leukemia) was > 100 µM.
